Data published in the supplement of paper PMC10307832.

Tests used:
Experiment in all cases: relative viability (nuclei count vs DMSO), 5 days (fraction); higher = more cells survive
[1] = tested on: NCI-H1437
Outline: (§1)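 Dosing by pin tool came one day after lung cancer cell lines were seeded in 1536-well plates, using either one drug or a fixed anchor-drug dose plus five library-drug doses (not always all listed) in √10 steps. After 5 days, nuclei were counted on 4× images. Relative viability is treated-well nuclei count divided by vehicle-well nuclei count, and values are medians of duplicate plates.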

[2] = tested on: COR-L 105
Outline: as §1

[3] = tested on: NCI-H661
Outline: as §1

[4] = tested on: NCI-H1975
Outline: as §1

[5] = tested on: UMC-11
Outline: as §1

[6] = tested on: NCI-H2023
Outline: as §1

[7] = tested on: HCC-78
Outline: as §1

[8] = tested on: LCLC-103H
Outline: as §1

[9] = tested on: HARA
Outline: as §1

[10] = tested on: NCI-H1944
Outline: as §1

[11] = tested on: COR-L23
Outline: as §1

[12] = tested on: NCI-H2085
Outline: as §1

[13] = tested on: HCC-44
Outline: as §1

[14] = tested on: NCI-H727
Outline: as §1

[15] = tested on: NCI-H2405
Outline: as §1

[16] = tested on: NCI-H358
Outline: as §1

[17] = tested on: EPLC-272H
Outline: as §1

[18] = tested on: NCI-H1792
Outline: as §1

[19] = tested on: NCI-H1395
Outline: as §1

[20] = tested on: SK-LU-1
Outline: as §1

[21] = tested on: HCC-15
Outline: as §1

[22] = tested on: HCC-366
Outline: as §1

[23] = tested on: HCC-827
Outline: as §1

## Cc1cnc(-c2cnc(NCCNc3ccc(C#N)cn3)nc2-c2ccc(Cl)cc2Cl)[nH]1 + CS(=O)(=O)N1CCN(Cc2cc3nc(-c4cccc5[nH]ncc45)nc(N4CCOCC4)c3s2)CC1 [Pictilisib] (partner 1 µM)
[1]; first compound 0.08 µM
  relative viability: 0.521
[1]; first compound 0.253 µM
  relative viability: 0.399
[1]; first compound 0.8 µM
  relative viability: 0.483
[1]; first compound 2.53 µM
  relative viability: 0.379
[2]; first compound 0.08 µM
  relative viability: 0.344
[2]; first compound 0.253 µM
  relative viability: 0.468
[2]; first compound 0.8 µM
  relative viability: 0.176
[2]; first compound 2.53 µM
  relative viability: 0.385
[3]; first compound 0.08 µM
  relative viability: 0.476
[3]; first compound 0.253 µM
  relative viability: 0.395
[3]; first compound 0.8 µM
  relative viability: 0.476
[3]; first compound 2.53 µM
  relative viability: 0.393
[4]; first compound 0.08 µM
  relative viability: 0.328
[4]; first compound 0.253 µM
  relative viability: 0.297
[4]; first compound 0.8 µM
  relative viability: 0.299
[4]; first compound 2.53 µM
  relative viability: 0.338
[5]; first compound 0.08 µM
  relative viability: 0.871
[5]; first compound 0.253 µM
  relative viability: 0.777
[5]; first compound 0.8 µM
  relative viability: 0.496
[5]; first compound 2.53 µM
  relative viability: 0.859
[6]; first compound 0.08 µM
  relative viability: 0.334
[6]; first compound 0.253 µM
  relative viability: 0.271
[6]; first compound 0.8 µM
  relative viability: 0.307
[6]; first compound 2.53 µM
  relative viability: 0.813
[7]; first compound 0.08 µM
  relative viability: 0.198
[7]; first compound 0.253 µM
  relative viability: 0.253
[7]; first compound 0.8 µM
  relative viability: 0.233
[7]; first compound 2.53 µM
  relative viability: 0.308
[8]; first compound 0.08 µM
  relative viability: 0.675
[8]; first compound 0.253 µM
  relative viability: 0.542
[8]; first compound 0.8 µM
  relative viability: 0.696
[8]; first compound 2.53 µM
  relative viability: 0.619
[9]; first compound 0.08 µM
  relative viability: 0.398
[9]; first compound 0.253 µM
  relative viability: 0.414
[9]; first compound 0.8 µM
  relative viability: 0.433
[9]; first compound 2.53 µM
  relative viability: 0.454
[10]; first compound 0.08 µM
  relative viability: 0.342
[10]; first compound 0.8 µM
  relative viability: 0.334
[10]; first compound 2.53 µM
  relative viability: 0.38
[11]; first compound 0.08 µM
  relative viability: 0.901
[11]; first compound 0.253 µM
  relative viability: 0.683
[11]; first compound 0.8 µM
  relative viability: 0.944
[11]; first compound 2.53 µM
  relative viability: 0.755
[12]; first compound 0.08 µM
  relative viability: 0.551
[12]; first compound 0.253 µM
  relative viability: 0.517
[12]; first compound 0.8 µM
  relative viability: 0.455
[12]; first compound 2.53 µM
  relative viability: 0.43
[13]; first compound 0.08 µM
  relative viability: 0.706
[13]; first compound 0.253 µM
  relative viability: 0.578
[13]; first compound 0.8 µM
  relative viability: 0.715
[13]; first compound 2.53 µM
  relative viability: 0.938
[14]; first compound 0.08 µM
  relative viability: 0.462
[14]; first compound 0.253 µM
  relative viability: 0.259
[14]; first compound 0.8 µM
  relative viability: 0.378
[14]; first compound 2.53 µM
  relative viability: 0.435
[15]; first compound 0.08 µM
  relative viability: 0.472
[15]; first compound 0.253 µM
  relative viability: 0.485
[15]; first compound 0.8 µM
  relative viability: 0.422
[15]; first compound 2.53 µM
  relative viability: 0.412
[16]; first compound 0.08 µM
  relative viability: 0.301
[16]; first compound 0.8 µM
  relative viability: 0.389
[16]; first compound 2.53 µM
  relative viability: 0.264
[17]; first compound 0.08 µM
  relative viability: 0.337
[17]; first compound 0.253 µM
  relative viability: 0.325
[17]; first compound 0.8 µM
  relative viability: 0.316
[17]; first compound 2.53 µM
  relative viability: 0.358
[18]; first compound 0.08 µM
  relative viability: 0.34
[18]; first compound 0.253 µM
  relative viability: 0.268
[18]; first compound 0.8 µM
  relative viability: 0.25
[18]; first compound 2.53 µM
  relative viability: 0.385
[19]; first compound 0.08 µM
  relative viability: 0.759
[19]; first compound 0.253 µM
  relative viability: 0.585
[19]; first compound 0.8 µM
  relative viability: 0.601
[19]; first compound 2.53 µM
  relative viability: 0.65
[20]; first compound 0.08 µM
  relative viability: 0.701
[20]; first compound 0.253 µM
  relative viability: 0.604
[20]; first compound 0.8 µM
  relative viability: 0.623
[20]; first compound 2.53 µM
  relative viability: 0.754
[21]; first compound 0.08 µM
  relative viability: 0.681
[21]; first compound 0.253 µM
  relative viability: 0.669
[21]; first compound 0.8 µM
  relative viability: 0.746
[21]; first compound 2.53 µM
  relative viability: 0.739
[22]; first compound 0.08 µM
  relative viability: 0.148
[22]; first compound 0.253 µM
  relative viability: 0.128
[22]; first compound 0.8 µM
  relative viability: 0.119
[22]; first compound 2.53 µM
  relative viability: 0.132
[23]; first compound 0.08 µM
  relative viability: 1.02
[23]; first compound 0.8 µM
  relative viability: 0.951
[23]; first compound 2.53 µM
  relative viability: 0.813
